US20260274895A1, “DE NOVO DESIGNED MEMBRANE-TRAVERSING AND ORALLY BIOAVAILABLE MACROCYCLES” (UNIVERSITY OF WASHINGTON, priority 2022, published 2026)
Where a SMILES comes first, the peptide text is derived from it. [ ]: non-standard residue; d: D form. dNMeI = CC[C@@H](C)[C@@H](NC)C(=O)O; NMeF = CN[C@@H](Cc1ccccc1)C(=O)O; dNMeF = CN[C@H](Cc1ccccc1)C(=O)O; NMeL = CN[C@@H](CC(C)C)C(=O)O; dNMeL = CN[C@H](CC(C)C)C(=O)O; NMeA = CN[C@@H](C)C(=O)O; dNMeA = CN[C@H](C)C(=O)O

Settings: PAMPA, PAMPA_Papp_Avg (apparent permeability)

Compared with `CC[C@H](C)[C@@H]1NC(=O)[C@H](Cc2ccccc2)N(C)C(=O)[C@H]2CCCN2C(=O)[C@H]([C@@H](C)CC)NC(=O)[C@@H](C)N(C)C(=O)[C@@H](C)NC(=O)[C@@H]2CCCN2C(=O)[C@H]2CCCN2C(=O)[C@H](CC(C)C)NC(=O)[C@@H](CC(C)C)NC(=O)[C@H](CC(C)C)NC(=O)[C@H]2CCCN2C1=O` [Design D12.6, p*FIpLILpPa*aI] (cyclo([dA][dNMeA]I[dP][NMeF]I[dP]L[dL]L[dP]P)), `CC(C)C[C@H]1NC(=O)[C@@H](C)NC(=O)[C@@H](C)NC(=O)[C@H]2CCCN2C(=O)[C@@H]2CCCN2C(=O)[C@H]2CCCN2C(=O)[C@@H](C)NC(=O)[C@@H](Cc2ccccc2)N(C)C(=O)[C@H]2CCCN2C(=O)[C@@H](CC(C)C)NC(=O)[C@@H](CC(C)C)NC1=O` [Design D11.25, lp*fapPpaall] (cyclo([dP][dA][dA][dL][dL][dL][dP][dNMeF][dA][dP]P)) is 3.3-fold lower in Papp: 1.39 ×10⁻⁶ cm/s for the first, 0.417 ×10⁻⁶ cm/s for the second.

First: CC[C@@H](C)[C@H]1NC(=O)[C@H]2CCCN2C(=O)[C@@H]2CCCN2C(=O)[C@@H]([C@H](C)CC)NC(=O)[C@@H](Cc2ccccc2)NC(=O)[C@@H](Cc2ccccc2)N(C)C(=O)[C@@H]2CCCN2C(=O)[C@@H](C(C)C)NC1=O [Design D8.33, fiPpivP*f] (cyclo(P[dNMeF][dF][dI]P[dP][dI][dV]))
Second: CC[C@@H](C)[C@H]1NC(=O)[C@H](Cc2ccccc2)NC(=O)[C@@H](C)NC(=O)[C@@H](CC(C)C)N(C)C(=O)[C@@H]2CCCN2C(=O)[C@H](C)NC(=O)[C@H]2CCCN2C(=O)[C@@H]2CCCN2C(=O)[C@@H](Cc2ccccc2)NC1=O [Design D9.41, PpAP*laFif] (cyclo(AP[dNMeL][dA]F[dI][dF]P[dP]))
The Papp of the first is 5.9-fold higher: 6 ×10⁻⁶ cm/s for the first, 1.02 ×10⁻⁶ cm/s for the second.

`CC[C@@H](C)[C@H]1NC(=O)[C@H](CC(C)C)N(C)C(=O)[C@H]2CCCN2C(=O)[C@H](CC(C)C)NC(=O)[C@H](Cc2ccccc2)N(C)C(=O)[C@H](CC(C)C)N(C)C(=O)[C@@H](C(C)C)NC(=O)[C@H](C)NC(=O)[C@H]2CCCN2C(=O)[C@@H]2CCCN2C1=O` [Design D10.17, *L*FLp*LiPpAv] (cyclo(A[dV][NMeL][NMeF]L[dP][NMeL][dI]P[dP])) and `CC[C@@H](C)[C@H]1NC(=O)[C@H](CC(C)C)N(C)C(=O)[C@H]2CCCN2C(=O)[C@H](CC(C)C)NC(=O)[C@@H](Cc2ccccc2)N(C)C(=O)[C@H](CC(C)C)N(C)C(=O)[C@@H](C(C)C)NC(=O)[C@H](C)NC(=O)[C@H]2CCCN2C(=O)[C@@H]2CCCN2C1=O` [SEQ ID NO 94, *L*fLp*LiPpAv] (cyclo(A[dV][NMeL][dNMeF]L[dP][NMeL][dI]P[dP])) are the same in Papp: 2.69 ×10⁻⁶ cm/s for the first, 2.69 ×10⁻⁶ cm/s for the second.

`CC[C@H](C)[C@@H]1NC(=O)[C@@H](C(C)C)NC(=O)[C@@H]2CCCN2C(=O)[C@@H](CC(C)C)N(C)C(=O)[C@@H](C(C)C)NC(=O)[C@H](CC(C)C)N(C)C(=O)[C@H]2CCCN2C(=O)[C@@H](C)NC(=O)[C@H](Cc2ccccc2)N(C)C(=O)[C@H]2CCCN2C1=O` [Design D10.3., Ip*Fap*Lv*lPv] (cyclo(I[dP][NMeF][dA][dP][NMeL][dV][dNMeL]P[dV])) and `CC[C@H](C)[C@@H]1NC(=O)[C@@H](CC(C)C)N(C)C(=O)[C@H](CC(C)C)N(C)C(=O)[C@@H](Cc2ccccc2)NC(=O)[C@@H](CC(C)C)N(C)C(=O)[C@H]2CCCN2C(=O)[C@H]2CCCN2C(=O)[C@@H]2CCCN2C(=O)[C@@H](C(C)C)NC(=O)[C@@H]2CCCN2C(=O)[C@H](C)NC1=O` [Design D11.11, Ppp*lf*L*lIAPv] (cyclo(AP[dV]P[dP][dP][dNMeL][dF][NMeL][dNMeL]I)) are within 1.5-fold of each other in Papp: 2.52 ×10⁻⁶ cm/s for the first, 2.81 ×10⁻⁶ cm/s for the second.

Compared with `CC(C)C[C@@H]1NC(=O)[C@@H](Cc2ccccc2)N(C)C(=O)[C@H](C(C)C)NC(=O)[C@H](C)NC(=O)[C@@H](C)NC(=O)[C@@H](Cc2ccccc2)N(C)C(=O)[C@@H]2CCCN2C(=O)[C@H](C(C)C)NC(=O)[C@@H]2CCCN2C(=O)[C@@H](C)NC1=O` [Design D10.48, aPVP*faAV*fL] (cyclo(AV[dNMeF]L[dA]PVP[dNMeF][dA])), `CC(C)C[C@@H]1NC(=O)[C@@H]2CCCN2C(=O)[C@@H](Cc2ccccc2)NC(=O)[C@H](C)N(C)C(=O)[C@H](CC(C)C)NC(=O)[C@H](CC(C)C)N(C)C(=O)[C@@H](C)NC(=O)[C@@H](CC(C)C)NC(=O)[C@@H]2CCCN2C(=O)[C@@H](Cc2ccccc2)NC1=O` [SEQ ID NO 108, LfPla*LL*AfP] (cyclo(L[NMeA][dF]PL[dF]P[dL][dA][NMeL])) is 5.5-fold higher in Papp: 0.716 ×10⁻⁶ cm/s for the first, 3.92 ×10⁻⁶ cm/s for the second.

Going from `CC[C@H](C)[C@@H]1NC(=O)[C@H](CC(C)C)N(C)C(=O)[C@H]2CCCN2C(=O)[C@H]2CCCN2C(=O)[C@H](Cc2ccccc2)NC(=O)[C@@H](CC(C)C)NC(=O)[C@H]2CCCN2C(=O)[C@@H]2CCCN2C1=O` [Design D8.27, Fpp*LIPpl] (cyclo(F[dP][dP][NMeL]IP[dP][dL])) to `CC[C@H](C)[C@@H]1NC(=O)[C@@H](C)N(C)C(=O)[C@H]2CCCN2C(=O)[C@H]2CCCN2C(=O)[C@H](Cc2ccccc2)NC(=O)[C@@H](CC(C)C)NC(=O)[C@@H](CC(C)C)N(C)C(=O)[C@@H]2CCCN2C1=O` [Design D8.17, P*llFpp*aI] (cyclo(F[dP][dP][dNMeA]IP[dNMeL][dL])), the Papp rises from 0.315 ×10⁻⁶ cm/s to 0.95 ×10⁻⁶ cm/s (3-fold).

First: CC(C)C[C@H]1NC(=O)[C@H]2CCCN2C(=O)[C@H](CC(C)C)N(C)C(=O)[C@@H](C)N(C)C(=O)[C@@H](Cc2ccccc2)NC(=O)[C@@H](C(C)C)NC(=O)[C@H]2CCCN2C(=O)[C@@H](CC(C)C)NC1=O [Design D8.19, f*a*Lpllpv] (cyclo([NMeL][dP][dL][dL][dP][dV][dF][dNMeA]))
Second: CC(C)C[C@@H]1NC(=O)[C@H](Cc2ccccc2)NC(=O)[C@@H](CC(C)C)NC(=O)[C@H]2CCCN2C(=O)[C@H](C(C)C)NC(=O)[C@@H](CC(C)C)NC(=O)[C@H]2CCCN2C(=O)[C@@H]2CCCN2C1=O [Design D8.5, FLPplVpl] (cyclo(FLP[dP][dL]V[dP][dL]))
The Papp of the first is 10-fold lower: 0.626 ×10⁻⁶ cm/s for the first, 6.31 ×10⁻⁶ cm/s for the second.

Compared with `CC[C@H](C)[C@@H]1NC(=O)[C@@H]2CCCN2C(=O)[C@H]2CCCN2C(=O)[C@@H](CC(C)C)NC(=O)[C@@H](CC(C)C)N(C)C(=O)[C@@H](C(C)C)NC(=O)[C@H](C(C)C)NC(=O)[C@H]2CCCN2C(=O)[C@@H]2CCCN2C(=O)[C@H]([C@@H](C)CC)NC(=O)[C@H](C)N(C)C1=O` [Design D11.13, PpVv*llpPI*AI] (cyclo(I[NMeA]IP[dP]V[dV][dNMeL][dL][dP]P)), `CC[C@@H](C)[C@H]1NC(=O)[C@@H](CC(C)C)NC(=O)[C@@H](CC(C)C)NC(=O)[C@H]2CCCN2C(=O)[C@H](CC(C)C)N(C)C(=O)[C@@H](C)N(C)C(=O)[C@@H]2CCCN2C(=O)[C@@H]([C@H](C)CC)NC(=O)[C@@H](C(C)C)NC(=O)[C@@H]2CCCN2C1=O` [Design D10.46, PviP*a*Lplli] (cyclo([NMeL][dP][dL][dL][dI]P[dV][dI]P[dNMeA])) is 3.7-fold lower in Papp: 1.43 ×10⁻⁶ cm/s for the first, 0.388 ×10⁻⁶ cm/s for the second.

Compared with `CC(C)C[C@@H]1C(=O)N[C@H](CC(C)C)C(=O)N2CCC[C@@H]2C(=O)N2CCC[C@@H]2C(=O)N(C)[C@@H](CC(C)C)C(=O)N[C@H](CC(C)C)C(=O)N2CCC[C@@H]2C(=O)N2CCC[C@H]2C(=O)N1C` [Design D8.32, pp*LlpP*ll] (cyclo([dNMeL][dL][dP][dP][NMeL][dL][dP]P)), `CC[C@H](C)[C@@H]1NC(=O)[C@@H](CC(C)C)NC(=O)[C@@H]2CCCN2C(=O)[C@@H]2CCCN2C(=O)[C@@H](CC(C)C)NC(=O)[C@@H]2CCCN2C(=O)[C@H]2CCCN2C(=O)[C@@H](C(C)C)NC(=O)[C@@H](C)N(C)C1=O` [Design D9.14, PlI*avpPlP] (cyclo([dL]PP[dL]I[dNMeA][dV][dP]P)) is 12-fold lower in Papp: 5.23 ×10⁻⁶ cm/s for the first, 0.421 ×10⁻⁶ cm/s for the second.

`CC(C)C[C@@H]1C(=O)N(C)[C@@H](Cc2ccccc2)C(=O)N[C@@H](C(C)C)C(=O)N2CCC[C@H]2C(=O)NCC(=O)N2CCC[C@H]2C(=O)N(C)[C@H](CC(C)C)C(=O)N[C@@H](C(C)C)C(=O)N[C@H](CC(C)C)C(=O)N1C` [SEQ ID NO 69, *lvl*l*FVPGP] (cyclo(GP[dNMeL]V[dL][dNMeL][NMeF]VP)) and `CC[C@@H](C)[C@H]1NC(=O)[C@@H]2CCCN2C(=O)[C@@H](Cc2ccccc2)NC(=O)[C@H](CC(C)C)N(C)C(=O)[C@H](C)NC(=O)[C@H]2CCCN2C(=O)[C@@H]2CCCN2C(=O)[C@H](CC(C)C)NC(=O)[C@H](CC(C)C)N(C)C(=O)[C@H](C)N(C)C1=O` [Design D10.26, Pi*A*LLPpA*Lf] (cyclo(A[NMeL][dF]P[dI][NMeA][NMeL]LP[dP])) are within 1.5-fold of each other in Papp: 0.946 ×10⁻⁶ cm/s for the first, 0.808 ×10⁻⁶ cm/s for the second.

Compared with `CC[C@H](C)[C@@H]1NC(=O)[C@@H](C)NC(=O)[C@@H]2CCCN2C(=O)[C@H]2CCCN2C(=O)[C@@H]2CCCN2C(=O)[C@@H](C)NC(=O)[C@@H](Cc2ccccc2)NC(=O)[C@@H](CC(C)C)N(C)C(=O)[C@@H](CC(C)C)N(C)C1=O` [Design D9.15, PpPaI*l*lfa] (cyclo([dA]I[dNMeL][dNMeL][dF][dA]P[dP]P)), `CC[C@@H](C)[C@H]1NC(=O)[C@H](CC(C)C)NC(=O)[C@@H](C)N(C)C(=O)[C@@H]2CCCN2C(=O)[C@H](C)NC(=O)[C@@H](CC(C)C)NC(=O)[C@H]2CCCN2C(=O)[C@H](C(C)C)NC(=O)[C@@H](CC(C)C)N(C)C1=O` [Design D9.30, plAP*aLi*lV] (cyclo(AP[dNMeA]L[dI][dNMeL]V[dP][dL])) is 4.7-fold higher in Papp: 0.341 ×10⁻⁶ cm/s for the first, 1.6 ×10⁻⁶ cm/s for the second.

Going from `CC(C)C[C@H]1C(=O)N2CCC[C@@H]2C(=O)N[C@@H](Cc2ccccc2)C(=O)N2CCC[C@H]2C(=O)N[C@H](C(C)C)C(=O)N[C@H](Cc2ccccc2)C(=O)N1C` (single isomer, unassigned) [Design D6.9.p1, vf*LpFP] to `CSCC[C@@H]1NC(=O)[C@@H]2CCCN2C(=O)[C@@H](C(C)C)NC(=O)[C@@H](C)N(C)C(=O)[C@@H](CC(C)C)NC(=O)[C@@H](CC(C)C)NC(=O)[C@@H]2CCCN2C(=O)[C@H]2CCCN2C1=O` [Design D8.29, MpPll*avP] (cyclo([dL][dL][dNMeA][dV]PM[dP]P)), the Papp falls from 5.29 ×10⁻⁶ cm/s to 0.236 ×10⁻⁶ cm/s (22-fold).

`CSCC[C@@H]1NC(=O)[C@@H](C)N(C)C(=O)[C@@H]2CCCN2C(=O)[C@@H](CC(C)C)NC(=O)[C@H](CC(C)C)N(C)C(=O)[C@H]2CCCN2C(=O)[C@H](CC(C)C)NC(=O)[C@@H](CC(C)C)NC(=O)[C@@H](C)NC1=O` [Design D9.28, lLp*LlP*aMa] (cyclo(L[dP][NMeL][dL]P[dNMeA]M[dA][dL])) and `CC[C@@H](C)[C@H]1NC(=O)[C@H]([C@@H](C)CC)NC(=O)[C@H](Cc2ccccc2)N(C)C(=O)[C@H]2CCCN2C(=O)[C@@H]([C@H](C)CC)NC(=O)[C@@H]([C@H](C)CC)N(C)C(=O)[C@H](CC(C)C)NC(=O)[C@H]2CCCN2C(=O)[C@@H]2CCCN2C(=O)[C@H](C(C)C)NC(=O)[C@H]2CCCN2C1=O` [Design D11.4, VPpL*iip*FIip] (cyclo(I[dI][dP]VP[dP]L[dNMeI][dI][dP][NMeF])) are within 1.5-fold of each other in Papp: 1.57 ×10⁻⁶ cm/s for the first, 1.84 ×10⁻⁶ cm/s for the second.
